Paper PMC6928678, “Simplified Head-to-Tail Cyclic Polypeptides as Biomaterial-Associated Antimicrobials with Endotoxin Neutralizing and Anti-Inflammatory Capabilities” (International Journal of Molecular Sciences, 2019)
≈ marks a conversion by molar mass, not a printed value. Where a SMILES comes first, the peptide text is derived from it. [ ]: non-standard residue; d: D form. Orn = NCCC[C@H](N)C(=O)O

Experiments:
E. coli 25922 = assay: microbe, parasite or virus in culture; assay type: cell-based, Escherichia coli; conditions: 25922, 20 h
Experimental: (§1) The test strains, including Gram-negative E. coli ATCC25922, E. coli ATCC 1005, S. typhimurium C7731, P. aeruginosa ATCC 27853, S. Typhimurium 14028, Gram-positive S. aureus ATCC29213, S. aureus ATCC 25923, S. epidermidis ATCC 12228 and S. aureus 43300, were obtained from the School of Veterinary Medicine, Northeast Agricultural University (Harbin, China).
(§2) Briefly, the bacteria were incubated overnight at 37 °C with constant shaking at 220 rpm, then were transferred to new MH broth (MHB) medium until they reached the logarithmic phase of growth. The bacteria were then diluted to 10^5 (CFU)/mL in MHB. The peptides were dissolved and diluted in 0.01% acetic acid and 0.2% bovine serum albumin (BSA) at various concentrations (0.5–128 μM) in each well of sterile 96-well plates and incubated for 20 h at 37 °C. […] The test was repeated three times.

E. coli UB 1005 = assay: microbe, parasite or virus in culture; assay type: cell-based, Escherichia coli; conditions: UB 1005, 20 h
Experimental: as §1, §2

MRSA43300 = assay: microbe, parasite or virus in culture; assay type: cell-based, Methicillin-resistant Staphylococcus aureus; conditions: 20 h
Experimental: as §1, §2

[1] = system: gram-positive strains tested; assay: organism not typed; assay type: cell-based; conditions: 20 h
Experimental: as §2

RAW264.7 cells = assay: MTT cytotoxicity assay; assay type: cell-based, mouse; conditions: 0.5–128 μM, 24 h
Experimental: Figure 2 (A) Hemolytic activity of the engineered peptides against human red blood cells (hRBCs). The hRBCs were incubated with equal amounts of the respective peptides dissolved in PBS for 1 h at 37 °C. (B) Cytotoxicity of the engineered peptides against RAW264.7. The cells were incubated with various concentrations (0.5–128 μM) of peptides for 24 h, and the cell viability was determined by the MTT assay. Data shown are three independent experiments.
The MTT (3-[4, 5 dimethylthiozol-2-yl]-2,5-diphenyltetrazolium bromide) assay was conducted according to a previously reported MTT colorimetric method, and is used as a cell proliferation and cell viability assay. Mouse macrophage RAW264.7 cell lines stored in liquid nitrogen were recovered and cultured in a fully humidified atmosphere with 95% air and 5% CO2 at 37 °C. The cells were then diluted, added to 96-well plates at a final concentration of 2 × 10^5 cells/well, and cultured in RPMI 1640 medium at 37 °C overnight. The next day, peptides were added to the cell cultures at final concentrations of 0.5–128 μM, and untreated cell cultures serving as controls were cultured for 20–24 h in the same conditions. […] 150 μL of DMSO was added to dissolve the formazan crystals, and the OD was measured using a microplate reader (Tecan GENios F129004, Salzburg, Austria) at 570 nm. […]

LPS = assay: Surface plasmon resonance of peptide-LPS interaction; assay type: binding; conditions: peptide on CM5 chip, LPS 3.125–50 µg/mL, 20 mM Tris, 100 mM NaCl, pH 7.4
Experimental: Figure 3 (A) The combining ability of OIR3 and gramicidin S (GS; 0.5 μM, 1 μM, 2 μM, […], 8 μM, 16 μM and 32 μM) with lipopolysaccharide (LPS). (B) SPR spectroscopy of the interaction kinetics of the peptides and LPS. The peptides were immobilized on a CM5 sensor chip as a ligand, and LPS was diluted in a series of concentrations (3.125, 6.25, 12.5, 25 and 50 μg/mL). Data shown are three independent experiments.
Surface plasmon resonance (SPR) is a method commonly used to study protein–protein interactions. The main advantage of SPR is that it provides the ability to measure the binding affinities and association/dissociation kinetics of complexes in real time, in a label-free environment, and using relatively small quantities of materials. Real-time binding interactions between peptides and LPS were measured by using the Biacore 3000 instrument (GE Healthcare, Waukesha, Wisconsin, USA). In […] sodium acetate buffer (pH 5.5), the cyclic antimicrobial peptides OIR3, IR3, DIR3 and GS were diluted to an optimum fixed concentration of 25.6 µM, and then covalently immobilized on the CM5 sensor chip; nearly 1100 resonant units (RU) of the peptide were captured. All measurements were performed in 20 mM Tris buffer (pH 7.4) containing 100 mM NaCl. […]

[2] = system: oxazolone-induced ear edema; assay: Oxazolone-induced skin inflammation (allergic dermatitis model); conditions: for ear thickness and ear punch weight: mice, topical 0.5%, 1% or 2% w/v on right ear, 24 h after treatment
Experimental: ICR mice (male, 4–6 weeks old, and 18–22 g) were obtained from the Experimental Animal Center of Harbin Medical University.
4-Ethoxymethylene-2-phenyl-2-oxazolin-5-one (oxazolone, OXA) was used to induce ear edema in mice [66]. […] The fur was clipped from each animal’s abdomen the day before the experiment was conducted. On the day of the experiment (day 0), 50 ul 3% oxazolone induction solution (prepared in a 5:1 (v/v) mixture of acetone: corn oil carrier) was applied to all mice as a single topical application to the shaved abdomen. After 5 days, 50 µL of 1% oxazolone challenge solution (prepared in acetone) was applied as a single topical application to the dorsal area of the right ear for 1 h. Of the peptide solution, vehicle control or positive control (dexamethasone) solution 20 µL was applied topically to the dorsal area of the right ear. The left ear was used as a control. 24 h later, the mice were euthanized by cervical dislocation under ether anesthesia, and two ear punches (6 mm, i.d.) were collected and weighed. The degree of edema and the increase in ear thickness were determined by the increase in the weight and thickness of the right ear punch when compared with that of the left ear.
(4) Ear weight increase %=[Right ear weight (mg)− Left ear weight (mg)]/Left ear weight (mg)× 100%
(5) Increase of the ear thickness% =Right ear thickness (mm)−Left ear thinkcess (mm)/Left ear thickness×100%
Mouse ear tissues were ground in liquid nitrogen and 1 mL of Trizol was added. The total RNA content in each group of ears was extracted using the conventional Trizol method. qRT-PCR was used to measure the mRNA level of inflammatory cytokines TNF-α, IL-6 and IL-1β in mouse ear tissues. One microgram total of RNA was reverse transcribed using M-MLV reverse transcriptase (Takara, Japan). qRT-PCR was performed using a SYBR Green Mix kit (Takara, Japan) with a 7500 Real-Time PCR system according to the manufacturer’s instructions. The mRNA expression levels were normalized to β-actin using the (2^−∆∆Ct) method. The gene expression was normalized to the corresponding mGAPDH level. […]

[3] = RP-HPLC used as measure of hydrophobicity; 4.6 mm × 250 mm Venusil MP C18-5 column, 220 nm, linear acetonitrile gradient 15% to 45% in 30 min, 0.1% trifluoroacetic acid, 1 mL/min
Source text: In this experiment, cyclic, linear and D-proline antimicrobial peptides were designed based on the IR-rich template sequence (IR)nP(IR)nP (n = 1, 2 and 3). […] The […] molecular weights of the peptides were identified using mass spectrometry. […] The hydrophobicity of the peptides in solution is dependably mirrored by the HPLC retention times.

[4] = system: TNF-α production in RAW264.7 cells; assay: LPS-stimulated TNF-α production (ELISA); assay type: cell-based, mouse
Experimental: Figure 11 The inhibitory effects of OIR3, IR3, DIR3 and GS on LPS-stimulated TNF-α production in RAW264.7 cells. The levels of TNF-α in the […] were determined by ELISA using a commercial kit for mouse TNF-α. Data shown are the mean ± SD of three independent experiments.
LPS-activated inflammatory responses are always accompanied by the production of inflammatory cytokines, such as tumor necrosis factor-alpha (TNF-α). Briefly, 2 × 10^5 cells/well RAW264.7 cells were plated in 96-well plates and stimulated with LPS (100 ng/mL) in the absence or presence of the peptides (1–32 μM) for 18 h at 37 °C. The levels of TNF-α were determined using an ELISA kit (Boster, Wuhan, China) in accordance with the manufacturer’s instructions. TNF-α was measured by determining the absorbance at 540 nm.

| SMILES | MIC (E. coli 25922) [µM] | MIC (E. coli UB 1005) [µM] | MIC (MRSA43300) [µM] | pGM (+), geometric mean of the MICs against gram-positive strains [1] [µM] | toxicity towards mammalian cells (RAW264.7) (RAW264.7 cells) | binding of LPS to immobilized peptide (SPR) (LPS) | ear thickness and ear punch weight [2] | RT (retention time) [3] [min] | inhibition of LPS-stimulated TNF-α expression [4] | expression of mRNA of TNF-α, IL-1β and IL-6 in mouse ear tissue ([2]; qRT-PCR, oxazolone-induced skin inflammation) |
| --- | --- | --- | --- | --- | --- | --- | --- | --- | --- | --- |
| CC(C)C[C@@H]1NC(=O)[C@H](CCCN)NC(=O)[C@H](C(C)C)NC(=O)[C@@H]2CCCN2C(=O)[C@@H](Cc2ccccc2)NC(=O)[C@H](CC(C)C)NC(=O)[C@H](CCCN)NC(=O)[C@H](C(C)C)NC(=O)[C@@H]2CCCN2C(=O)[C@@H](Cc2ccccc2)NC1=O [GS, gramicidin S, reference compound] (cyclo(V[Orn]L[dF]PV[Orn]L[dF]P)) | 4 (≈ 4.57 µg/mL) | 4 (≈ 4.57 µg/mL) | 2 (≈ 2.28 µg/mL) | 2 | highly toxic | weak binding to LPS at high concentrations and almost no binding at the low concentrations | increased |  |  |  |
| CC[C@H](C)[C@@H]1NC(=O)[C@H](CCCNC(=N)N)NC(=O)[C@H]([C@@H](C)CC)NC(=O)[C@@H]2CCCN2C(=O)[C@H](CCCNC(=N)N)NC(=O)[C@H]([C@@H](C)CC)NC(=O)[C@H](CCCNC(=N)N)NC(=O)[C@H]([C@@H](C)CC)NC(=O)[C@H](CCCNC(=N)N)NC(=O)[C@H]([C@@H](C)CC)NC(=O)[C@@H]2CCCN2C(=O)[C@H](CCCNC(=N)N)NC(=O)[C@H]([C@@H](C)CC)NC(=O)[C@H](CCCNC(=N)N)NC1=O [OIR3] (cyclo(IRIRIRPIRIRIRP)) | 2 (≈ 3.62 µg/mL) | 2 (≈ 3.62 µg/mL) | 4 (≈ 7.24 µg/mL) | 4.0 |  | rapidly binds | significantly reduced | 12.64 | more strongly inhibited | significantly down-regulated |
